In patent US20030198617A1, “Pharmaceutical tryptophan containing dipeptide compositions and methods of use thereof” (priority 1993, published 2003):
Marks after values point to notes of the source that are not given here.

Tests used:
[1] = Pediatric purulent maxillary sinusitis, local IM862; assay type: in vivo, human; conditions: for B-lymphocytes % / B-lymphocytes abs. / Immune complexes / Leukocytes, abs / Lymphocytes % / Lymphocytes, abs / O-lymphocytes % / O-lymphocytes abs. / T-lymphocytes % / T-lymphocytes abs. / Lysozyme: after treatment c IM862
[2] = Immune status in early terms after irradiation; assay type: in vivo, human; conditions: after IM862 therapy
Experimental: The patients described in Example 42 were tested for blood parameters the first few days after exposure to the radiation of the Chernobyl accident. It could be seen from Table 3 below that response to the treatment was observed even after a few weeks of treatment.

[3] = Spontaneous tumorigenesis, experimental models; assay type: in vivo; conditions: IM862 prophylactically
[4] = Patients with fever, toxic symptoms, jaundice (Example 101); assay type: in vivo, human; conditions: IM862 IM or intranasally 5-10 days, 39 patients
Source text: A total of 39 patients were studied with 27 patient controls. […] Immunological indices were normalized.

T cells = experiment: Intracellular cAMP in T cells; assay type: cell-based
[5] = Chronic prostatitis, clinical result and immunological examination
Experimental: A clinical study of the preparation was conducted in 34 chronic prostatitis patients having active inflammation. Patients were aged 22 to 45 years old. Diagnosis was established by patient complaints, a medical history, palpation of the prostate, and laboratory investigation methods (microscopic examination of prostate gland secretions, spermography, three-cup urinalysis).
A traditional treatment plan was followed simultaneously, using antibacterial preparations, uroantiseptics, physical procedures, prostate gland massage, and therapeutic exercise.
Measurement reliability of the obtained indices was evaluated with the use of variable statistics methods.
The persistent disappearance (over an observation period of 1-1.5 months) of painful sensations, leukocyturia, the lowering of the leukocyte count to normal levels in prostate gland secretions and ejaculate, and the overall improvement in the general state of the patient were all deemed to be a good result.
The normalization of all laboratory indices while complaints of pain persisted in the perineum, sacrum, anal region, scrotum, etc. was rated as a satisfactory result.
The second group was made up of patients with lowered initial indices, and the third had patients with elevated initial indices.

[6] = acute purulent maxillary sinusitis
[7] = chronic purulent maxillary sinusitis and Highmore ethmoiditis
[8] = second group, after IM862 treatment
[9] = 34 chronic prostatitis patients
[10] = after treatment 100 μg i.m. for 5 days
[11] = elevated in 1 patient, after treatment

## Glu-Trp [IM862]
[1]; [6]
  B-lymphocytes %: 21.9 ± 2.1%
  B-lymphocytes abs.: 778.0 ± 89.9
  Immune complexes: 113.3 ± 15.3
  Leukocytes, abs: 7200.0 ± 234.5
  Lymphocytes %: 44.7 ± 1.7%
  Lymphocytes, abs: 3281.3 ± 235.0
  O-lymphocytes %: 34.3 ± 2.4%
  O-lymphocytes abs.: 1082.0 ± 21.0
  T-lymphocytes %: 41.8 ± 1.2%
  T-lymphocytes abs.: 1420.3 ± 131.6
[1]; acute purulent maxillary sinusitis, outwash from sinuses
  Lysozyme: 45.0 ± 5.9
[1]; [7]
  B-lymphocytes %: 20.7 ± 0.7%
  B-lymphocytes abs.: 562.0 ± 38.1
  Immune complexes: 90.8 ± 10.0
  Leukocytes, abs: 6650.0 ± 262.2
  Lymphocytes %: 41.5 ± 2.6%
  Lymphocytes, abs: 2761.8 ± 212.6
  Lysozyme: 52.4 ± 4.1
  O-lymphocytes %: 37.4 ± 1.9%
  O-lymphocytes abs.: 1052.5 ± 109.3
  T-lymphocytes %: 41.8 ± 1.0%
  T-lymphocytes abs.: 1109.8 ± 74.1
[1]; first group
  time until improvement was noted: 2 to 3 days
[1]; first group (acute and subacute)
  average hospital stay: 9.2 days
[1]; first group, end of treatment
  quantity of crystallization centers in irrigated fluid: 30-50
[1]; first group, in 7-9 days of treatment
  cessation of exudation, number of patients: 3 patients
[1]; first group, on the 6th day of treatment
  cessation of exudation, number of patients: 5 patients
[1]; second group
  nasal breathing and general sense of wellness normalized, number of patients: 38 patients
[1]; second group (chronic)
  average hospital stay: 8 days
[1]; [8]
  immunoglobulin M remained elevated, number of patients: 24 patients
  serum immunoglobulin A normalized, number of patients: 10 patients
  serum immunoglobulin G normalized, number of patients: 6 patients
[1]; second group, at 3-4 days of treatment vs second 24-hour period
  increase in exudation from the affected sinuses: 10-15%
[1]; second group, control crystallograms
  quantity of crystallization centers in irrigated fluid: 50-60
[1]; second group, following 4-5 days of treatment
  disappearance of edema of the nasal mucosa, number of patients: 32 patients
[1]; second group, in 3-4 days
  exudate attained a mucous character, number of patients: 27 patients
[1]; second group, in 4-6 days
  cessation of exudation, number of patients: 18 patients
[1]; second group, in 5-6 days
  exudate attained a mucous character, number of patients: 13 patients
[1]; second group, in 7-9 days
  cessation of exudation, number of patients: 20 patients
  exudate attained a mucous character, number of patients: two
[1]; second group, in 10-14 days
  cessation of exudation, number of patients: 4 patients
[1]; various forms of paranasal sinusitis
  therapeutic action during localized use: normalization of nasal breathing, decrease in nasal cavity mucosal edema, cessation of exudation from the involved sinuses
[2]
  C3: 0.68 ± 0.04 g/L
  CD2, %: 50.9 ± 2.4%
  CD2, abs: 1.13 ± 0.07** 10^9/l
  CD2-DR+, %: 31 ± 3 %
  CD2-DR+, abs: 0.69 ± 0.08** 10^9/l
  CD19, %: 30.5 ± 1.9 %
  CD19, abs: 0.68 ± 0.04** 10^9/l
  E-RFC, %: 23.4 ± 2.6%
  IgA: 1.11 ± 0.09 g/L
  IgG: 9.2 ± 0.7 g/L
  IgM: 0.58 ± 0.10 g/L
  LMI with ConA, %: 60 ± 7 %
  Leukocytes, abs: 6.4 ± 0.8** 10^9/l
  Lymphocytes, abs: 2.27 ± 0.16** 10^9/l
[3]
  spontaneous tumorigenesis: diminished frequency of spontaneous tumorigenesis
[4]
  clinical effect: reduction of fever
T cells
  intracellular cAMP concentrations: an increase of intracellular cAMP concentrations is observed
[5]; [9]
  good result, share of patients: 76.5%
  satisfactory result, number of patients: 8 patients
[5]; 34 chronic prostatitis patients, IM862 with traditional treatment
  good result, number of patients: 26 patients
[5]; IM862 use
  elevated and lowered immune indices upon completion of treatment: a normalization was observed in all the elevated and lowered indices
[5]; [10]
  B-lymphocytes %: 27.24 ± 1.44%
  B-lymphocytes Abs. quantity ×10^9: 0.54 ± 0.10 ×10^9
  Complement units: 29.43 ± 0.53 units
  IgA: 2.20 ± 0.12 g/L
  IgG: 12.52 ± 0.63 g/L
  Imm. complexes units: 0.080 ± 0.004 units
  Phagocytosis %: 39.41 ± 3.51%
  T-lymphocytes %: 44.44 ± 2.34%
  T-lymphocytes Abs. quantity ×10^9: 0.88 ± 0.07 ×10^9
[5]; [11]
  IgG: 14.71 ± 1.42 g/L
  IgM: 3.44 g/L
[5]; initial level elevated n = 2, after treatment
  T-lymphocytes %: 40.0 ± 15.5%
[5]; initial level elevated n = 7, after treatment
  Complement units: 30.7 ± 0.89 units
[5]; initial level elevated n = 8, after treatment
  B-lymphocytes %: 24.8 ± 2.91^x %
[5]; initial level elevated n = 19, after treatment
  Imm. complexes units: 0.08 ± 0.006^x units
[5]; initial level elevated n = 26, after treatment
  Phagocytosis %: 37.7 ± 3.94%
[5]; initial level lowered n = 5, after treatment
  Phagocytosis %: 36.6 ± 8.54^x %
